The values that follow come from US20240246941A1, “SUBSTITUTED 4-(3-AMINOPROP-1-YL)AMINOQUINOLINE ANALOGS AS MODULATORS OF MELANOMA-ASSOCIATED ANTIGEN 11 UBIQUITIN LIGASE” (ST. JUDE CHILDREN'S RESEARCH HOSPITAL, INC., priority 2020, published 2024).

Molecules are shown by their SMILES.

The target in one assay is MAGE-A11:PCF11 (Homo sapiens (Human), UniProt P43364). Put plainly: TR-FRET single point screening at 15 μM. The note with it: single point TR-FRET screening at 15 μM against MAGE-A11:PCF11. Also noted: unit not given here. In kind it is binding. From the text: TR-FRET Assays and High-throughput Screen. Terbium-anti-GST antibody, 1 M Tris pH 7.5 1 M MgCl2 and 1 M DTT were purchased from Invitrogen (Carlsbad, CA), BSA was purchased from Sigma (St. Louis, MO). Dimethyl sulfoxide (DMSO) was purchased from Fisher Scientific (Pittsburgh, PA). Black 384-well low volume plates and 384-well polypropylene compound plates were purchased from Corning Incorporated (Tewksbury, MA). The St. Jude FDA drug and Bioactive library (11,293 chemicals), Drug-like library (10,073 chemicals) and Lead-like library (10,041 chemicals) were custom assembled and purchased from commercial sources including Sigma, Microsource (Gaylordsville, CT), selleckchem (Houston, TX), ChemDiv (San Diego, CA), ChemBridge (San Diego, CA), Enamine (Monmouth Jct., NJ), and Life Chemicals (Niagara-on-the-Lake, ON, Canada). They were arrayed (10 mM in DMSO) in 384-well polypropylene compound plates with columns 1, 2, 13 and 14 empty which were reserved for controls.
Sequence of MAGE-A11:PCF11 (P43364 218-429): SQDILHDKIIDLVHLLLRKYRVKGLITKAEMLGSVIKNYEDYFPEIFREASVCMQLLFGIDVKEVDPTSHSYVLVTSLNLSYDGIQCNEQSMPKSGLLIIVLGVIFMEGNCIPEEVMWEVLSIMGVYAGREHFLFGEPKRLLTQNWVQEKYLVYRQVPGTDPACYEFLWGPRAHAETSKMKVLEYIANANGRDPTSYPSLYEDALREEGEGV
The TR-FRET assay buffer with a formula of 50 mM Tris pH 7.5, 20 mM MgCl2, 0.1 mg/ml BSA and 1 mM DTT was freshly prepared before each experiment. All TR-FRET assays were performed in black 384-well plates with 20 μl/well assay volume in the TR-FRET assay buffer at room temperature (approximately 25° C.). All peptides or compounds were solubilized in DMSO. To test the competitive activity of peptides or compounds against the interaction between GST-MAGEA11 MHD and FAM-PCF11_4 peptide, 10 μl/well peptide or compound at specified concentration was dispensed into a black 384-well low volume plate, followed by 5 μl/well FAM-PCF11_4 (800 nM), 5 μl/well Tb-anti-GST (20 nM) and GST-MAGEA11 MHD (20 nM). The assay components in each well was then mixed by shaking the plate on an IKA MTS 2/4 digital microtiter plate shaker (IKA Works; Wilmington, NC, USA) at 900 RPM for 1 minute. The plate was further centrifuged in an Eppendorf 5810 centrifuge with an A-4-62 swing-bucket rotor (Eppendorf AG, Hamburg, Germany) at 201 g (1000 rpm) for 30 seconds. The plate was then incubated for 90 min with a lid to avoid light exposure to the assay components. After incubation, the fluorescent emission signals at 520 nm and 490 nm channels of individual wells were measured with a PHERAstar FS plate reader (BMG Labtech; Durham, NC, USA) by using a 340 nm excitation filter, 100 μs delay time, and 200 μs integration time. The TR-FRET fluorescence emission ratio (TR-FRET signal) for each well was presented as 10 000×520 nm/490 nm, which was used directly for curve fitting, or further converted to % Inhibition based on the respective positive and negative controls. The graphic software GraphPad Prism 4.81 (GraphPad Software; La Jolla, CA, USA) was used to generate curves and derive IC50 values of tested peptides or compounds, if applicable.
TR-FRET screen for identifying MAGEA11 small molecule inhibitors was performed as follows. The primary one-concentration screening and subsequent 10 or 20-concentration dose response tests were accomplished with an automated High Throughput Screening system (HighRes Biosolutions, Beverly, MA)^30. In the primary screening, 15 μl/well FAM-PCF11_4 (267 nM) was first dispensed with a Multidrop Combi Reagent Dispenser (Thermo Fisher Scientific, Waltham, MA) to black 384-well low volume assay plates. The plates were spun down with a Velocity11 VSpin microplate centrifuge (Agilent Technologies, Santa Clara, CA). 30 nl/well of 10 mM compound/DMSO solutions, or DMSO alone, were transferred from compound plates (the St. Jude FDA drug and bioactive library, Drug-like library and Lead-like library) or a control plate to the assay plates with a Pin Tool (V&P Scientific, San Diego, CA). The compounds were arrayed in columns 3 to 12 and columns 15 to 24 of compound plates. The controls were arrayed in columns 1, 2, 13 and 14 of a compound plate. […]
`Cc1cccc(N2CCN(c3c(S(=O)(=O)c4ccccc4)cnc4ccccc34)CC2)c1C` [SJ000117081] registered a TR-FRET signal of −13.13.
On to `COc1ccc2ncc(S(=O)(=O)c3ccccc3)c(N3CCN(c4cccc(C)c4C)CC3)c2c1` [SJ000117082], for which the TR-FRET signal is recorded as −241.8.
`Cc1ccc(C)c(N2CCN(c3c(S(=O)(=O)c4ccccc4)cnc4ccc(F)cc34)CC2)c1` [SJ000117083] yielded a TR-FRET signal of −15.38.
Still for that read-out and setting: the result for `Cc1ccc(S(=O)(=O)c2cnc3ccccc3c2N2CCN(c3cc(C)ccc3C)CC2)cc1` [SJ000117084] reads 2.443; that for `COc1ccc2ncc(S(=O)(=O)c3ccc(C)cc3)c(N3CCN(Cc4ccccc4)CC3)c2c1` [SJ000117085], −82.22.
Still for that read-out and setting: the result for `CCc1ccc(S(=O)(=O)c2cnc3ccccc3c2N2CCN(Cc3ccccc3)CC2)cc1` [SJ000117086] reads −55.26; that for `CCOC(=O)c1cnc2ccc(C(=O)OC)cc2c1NCCN1CCOCC1` [SJ000127079], −7.813.
The same measure, in the same setting: the result for `CCOC(=O)c1cnc2c(C)cc(Cl)cc2c1NCCN1CCOCC1` [SJ000129560] reads 4.96; that for `CCOC(=O)c1cnc2c(C)c(C)ccc2c1NCCN(C)C` [SJ000134078], 8.538; that for `CCOC(=O)c1cnc2c(Cl)cccc2c1NCCN1CCOCC1` [SJ000163436], −6.529.
In turn, `CCOC(=O)c1cnc2c(C)cc(C)cc2c1NCCN1CCOCC1` [SJ000172983] had a TR-FRET signal of 8.869.
Still for that read-out and setting: in the case of `CCOC(=O)c1cnc2c(Cl)cc(Cl)cc2c1NCCN1CCOCC1` [SJ000175864] it was −13.06.
Still for that read-out and setting: the result for `CCOC(=O)c1cnc2c(C(=O)OC)cccc2c1NCCN1CCOCC1` [SJ000184799] reads 4.043.
Still for that read-out and setting: in the case of `CCOC(=O)c1cnc2ccc(Cl)cc2c1N1CCN(C)CC1` [SJ000187322] it was −0.9277.
With `Cc1ccc(S(=O)(=O)N2CCN(c3ccnc4cc(Cl)ccc34)CC2)cc1` [SJ000192519], the TR-FRET signal is recorded as −38.7.
The same measure, in the same setting: the result for `CC(=O)Nc1ccc(S(=O)(=O)N2CCN(c3ccnc4cc(Cl)ccc34)CC2)cc1` [SJ000193862] reads −16.19.
Same read-out and setting: in the case of `COc1ccc(S(=O)(=O)N2CCN(c3ccnc4cc(Cl)ccc34)CC2)cc1` [SJ000199955] it was −32.07.
For `O=S(=O)(c1ccc(Br)cc1)N1CCN(c2ccnc3cc(Cl)ccc23)CC1` [SJ000201754], the TR-FRET signal is given as −16.75.
On the same count and under the same terms, in the case of `O=S(=O)(c1ccc(F)cc1)N1CCN(c2ccnc3cc(Cl)ccc23)CC1` [SJ000203833] it was −50.64.
As for `O=S(=O)(c1ccc(Cl)cc1)N1CCN(c2ccnc3cc(Cl)ccc23)CC1` [SJ000204656], the TR-FRET signal is −34.39.
Same read-out and setting: the result for `C=CCOCC(O)CN1CCN(c2cc(C)nc3ccccc23)CC1` (centres unmarked) [SJ000227652] reads −0.207.
Same read-out and setting: in the case of `Cc1cc(N2CCN(CC(O)CO)CC2)c2ccccc2n1` (centres unmarked) [SJ000227653] it was −4.954; in that of `Cc1cc(N2CCN(CC(O)COCC(C)C)CC2)c2ccccc2n1` (centres unmarked) [SJ000227654], −3.251; in that of `C#CCOCC(O)CN1CCN(c2cc(C)nc3ccccc23)CC1` (centres unmarked) [SJ000227655], 6.55.
Same read-out and setting: in the case of `C=CCOCC(O)CN1CCN(c2cc(C(F)(F)F)nc3ccccc23)CC1` (centres unmarked) [SJ000228017] it was −2.128; in that of `C#CCOCC(O)CN1CCN(c2cc(C(F)(F)F)nc3ccccc23)CC1` (centres unmarked) [SJ000228018], −9.516; in that of `O=S(=O)(c1ccccc1)c1cnc2ccc(Cl)cc2c1N1CCN(Cc2ccccc2)CC1` [SJ000247242], −30.28.
As for `CCOc1ccc2ncc(C(=O)c3ccc(OC)cc3)c(N3CCN(CC)CC3)c2c1` [SJ000247243], the TR-FRET signal was −9.084.
As for `COc1ccc2ncc(C(=O)c3ccccc3)c(N3CCN(C)CC3)c2c1` [SJ000247245], the TR-FRET signal is reported as −2.393.
Same read-out and setting: in the case of `COc1ccc2ncc(S(=O)(=O)c3ccccc3)c(N3CCN(Cc4ccccc4)CC3)c2c1` [SJ000247248] it was −71.16.
On the same count and under the same terms, the result for `CCOc1ccc2ncc(S(=O)(=O)c3ccccc3)c(N3CCN(Cc4ccccc4)CC3)c2c1` [SJ000247249] reads −15.91; that for `CCOc1ccc2ncc(C(=O)c3ccc(C)cc3)c(N3CCN(C)CC3)c2c1` [SJ000247254], −10.61; that for `Cc1ccc2ncc(S(=O)(=O)c3ccccc3)c(N3CCN(Cc4ccccc4)CC3)c2c1` [SJ000247256], 2.673.
On the same count and under the same terms, in the case of `O=S(=O)(c1ccccc1)c1cnc2ccc(F)cc2c1N1CCN(Cc2ccccc2)CC1` [SJ000247257] it was −62.28.
With `Cc1ccc(S(=O)(=O)c2cnc3ccccc3c2N2CCN(C)CC2)cc1` [SJ000247268], the TR-FRET signal was −13.59.
The same measure, in the same setting: the result for `CCOc1ccc2ncc(C(=O)c3ccc(OC)cc3)c(N3CCN(C)CC3)c2c1` [SJ000247277] reads −18.95; that for `CCc1ccc2ncc(C(=O)c3ccccc3)c(N3CCN(CC)CC3)c2c1` [SJ000247281], −2.261; that for `CCN1CCN(c2c(C(=O)c3ccc(C)cc3)cnc3ccc(OC)cc23)CC1` [SJ000247282], 3.9.
On the same count and under the same terms, in the case of `CCOc1ccc2ncc(C(=O)c3ccccc3)c(N3CCN(CC)CC3)c2c1` [SJ000247283] it was −0.2733.
Still for that read-out and setting: in the case of `CCOc1ccc2ncc(C(=O)c3ccc(C)cc3)c(N3CCN(CC)CC3)c2c1` [SJ000247284] it was −14.25; in that of `CN1CCN(c2c(S(=O)(=O)c3ccc(Cl)cc3)cnc3ccccc23)CC1` [SJ000247306], −10.14.
In the case of `CCc1ccc2ncc(S(=O)(=O)c3ccc(C)c(C)c3)c(N3CCN(C)CC3)c2c1` [SJ000247332], the TR-FRET signal is given as 2.973.
The same measure, in the same setting: in the case of `COc1ccc2ncc(S(=O)(=O)c3ccc(C)c(C)c3)c(N3CCN(C)CC3)c2c1` [SJ000247333] it was −8.554.

Staying with this assay, now noted: single point TR-FRET screening of quinoline compounds against MAGE-A11:PCF11; 15 μM.
`CCOC(=O)c1cnc2ccc(OC)cc2c1NCCCN1CCOCC1` [SJ000127046] showed a TR-FRET signal of 2.945.
On to `CCOC(=O)c1cnc2c(C)c(Cl)ccc2c1NCCCN1CCOCC1` [SJ000129912], for which the TR-FRET signal is on record as −23.26.
On the same count and under the same terms, in the case of `CCOC(=O)c1cnc2c(C(F)(F)F)cccc2c1NCCCN1CCOCC1` [SJ000131358] it was 10.06; in that of `CCOC(=O)c1cnc2c(C)cc(C)cc2c1NCCCN1CCOCC1` [SJ000173725], 6.494.
Turning to `CCOC(=O)c1cnc2c(C)cc(Cl)cc2c1NCCCN1CCOCC1` [SJ000174094], the TR-FRET signal is on record as −10.52.
The same measure, in the same setting: in the case of `CCOC(=O)c1cnc2c(Cl)cc(Cl)cc2c1NCCCN1CCOCC1` [SJ000176476] it was −2.118; in that of `CCOC(=O)c1cnc2ccc(Br)cc2c1NCCCN1CCOCC1` [SJ000176507], −22; in that of `CCOC(=O)c1ccc2ncc(C(=O)OCC)c(NCCCN3CCOCC3)c2c1` [SJ000176583], 11.26.
Same read-out and setting: the result for `CCOC(=O)c1cnc2c(OC)cccc2c1NCCCN1CCOCC1` [SJ000180455] reads 3.635.
On the same count and under the same terms, in the case of `CCOC(=O)c1cnc2c(CC)cccc2c1NCCCN1CCOCC1` [SJ000185196] it was −4.499.
